Source: patent US6706509B2, “Oncoprotein protein kinase” (The Regents of the University of California, priority 1993, dated 2004)

Legend:
JNK [1] = test: Solid-state phosphorylation assay of JNK on GSTcJun(1-223)-GSH agarose beads, Jurkat cells; assay type: cell-based, human; conditions: for JNK activation together with suboptimal dose of TPA: A23187, anti-CD3 or anti-CD28 plus suboptimal TPA; for JNK activation, solid-state assay, agent alone: TPA 50 ng/ml or A23187 1 μg/ml, 15 minutes
Protocol: Exponentially growing cells were stimulated for the indicated times and hypotonic detergent cellular extracts were prepared as described (Hibi, et al., Genes and Dev., supra, 1993). The solid-state phosphorylation assay for measuring JNK activity was performed by incubated extracts with GSTcJun(1-223)-GSH agarose beads as described (Hibi, et al., supra., 1993) and as in Example 2. ERK1 and 2 activity was assayed by an immunecomplex kinase assay using MBP as a substrate (Minden, et al., Nature, 1993).
JNK can be retained on GSTcJun-glutathione (GSH) agarose affinity resin and its kinase activity measured by phosphorylation of GSTcJun. WCE (50 μg) of Jurkat cells treated as described above were incubated with 5 μl of GSH agarose beads coated with 10 μg GST-cJun (1-223) for 12 hours at 4° C. After extensive washing, the beads were incubated in kinase buffer containing γ-^32P-ATP for 20 minutes at 30° C., after which the proteins were dissociated by incubation in SDS sample buffer and separated by SDS-PAGE (FIG. 13B). The 49 kD band corresponds to GST-cJun (1-223). The faster migrating bands are degradation products (Hibi, et al., supra, 1993).
(§1) WCE (50 μg) of Jurkat cells treated as described above were incubated with GSTcJun(1-223)-GSH agarose beads and assayed for JNK activity using the solid-state kinase assay. The same WCE (20 μg) were immunoprecipitated with anti-ERK2 antibodies and assayed for MBP-kinase activity.
(§2) WCE (50 μg) of Jurkat cells treated as described in Panel A with various stimuli alone or their combinations were incubated with GSTcJun(1-223)-GSH agarose beads and assayed for JNK activity using solid-state kinase assay. The same samples (20 μg) were also assayed for MBP-kinase activity as described in FIG. 16B.

ERK2 = ERK2 MBP-kinase activity after anti-ERK2 immunoprecipitation, Jurkat cells; assay type: cell-based, human
Protocol: as §1, §2

c-jun = test: c-Jun phosphorylation in 32P-labelled Jurkat cells (SDS-PAGE, tryptic phosphopeptide mapping); assay type: cell-based, human
Protocol: (§3) Jurkat cells were grown in RPMI with 10% fetal calf serum (FCS), 1 mM […], 100 μ/ml penicillin (pen), 100 μg/ml streptomycin (strep) and 250 ng/ml amphotericin (complete medium). HeLa S3, CV-1 and FR3T3 cells were grown in DMEM supplemented with 10% FCS, 100 μ/ml pen, 100 μg/ml strep. All cells were cultured at 37° C. with 5% CO2. Mouse thymocytes were prepared from 8 week old Balb/C mice by gradient centrifugation on lymphocyte separation medium (Pharmacia). The lymphocytes were cultured for 5 hours at 37° C. in RPMI+10% FCS, prior to stimulation. Jurkat cells were labelled for 90 minutes with 0.5 mCi/ml ^32P-orthophosphate (ICN Radiochemicals) in medium lacking sodium phosphate. Labelled cells were treated with TPA (Sigma) and A23187 (Calbiochem) 1 μg/ml as indicated. When used, cyclosporin A (CsA) (Sandoz) 100 ng/ml in ethanol was added 10 minutes prior to cell stimulation. Following stimulation, the labelled cells were washed twice with ice-cold PBS then lysed with RIPA buffer (10 mM Tris pH 7.5, 150 mM NaCl, 2 mM EDTA, 1% Triton-X 100, 1% DOC, 0.1% SDS) supplemented with phosphatase inhibitors (20 mM β-glycerophosphate, 10 mM p-nitro-phenylphosphate, 1 mM Na3 VO4), and protease inhibitors (10 μg/ml leupeptin, aprotonin, pepstatin and 1 mM phenylmethyl sulfonylfluoride). c-Jun was immunoprecipitated as described (Binetruy, et al., supra., 1992) and analyzed by SDS-PAGE, followed by peptide mapping (Boyle, et al., Cell, 64:573-584, 1991; Lin, et al. Cell, 70:777-789, 1992). Ha-Ras was immunoprecipitated with Y13-259. Ha-Ras bound nucleotides were extracted and analyzed as described by Satoh, et al., (Proc. Natl. Acad. Sci., USA, 15:5993-5997, 1990).
Induction of c-Jun transcription and optimal stimulation of AP-1 correlate with changes in c-jun phosphorylation (Devary, et al., Cell, 71:1081-1091, 1992). The effect of TPA and A23187 on c-Jun phosphorylation in Jurkat cells was examined. To elevate c-Jun expression, Jurkat cells were transfected with a c-Jun expression vector. The cells were labelled with ^32P and c-Jun was immunoprecipitated from cells subjected to various stimuli and analyzed by SDS-PAGE (FIG. 12A). Jurkat cells (10^6 cells per lane) were transfected with 0.5 μg of a SRα-cJun expression vector and 24 hours later were labeled for 3 hours with ^32P-orthophosphate (1 mCi/ml). After 15 minutes, treatment with 50 ng/ml TPA (T), 1 μg/ml A23187 (A) and 100 ng/ml CsA, either alone or in combination, as indicated, the cells were lysed in RIPA buffer and c-Jun was isolated by immunoprecipitation and analyzed by SDS-PAGE. The c-Jun bands are indicated.
c-Jun phosphorylation was further analyzed by two-dimensional phosphopeptide mapping (FIG. 12C). This analysis included all the isoforms of c-Jun. All of the c-Jun specific protein bands shown in FIG. 12A, isolated from equal numbers of cells, were excised from the gel and subjected to tryptic phosphopeptide mapping. Shown is a typical result (this experiment was repeated at least three times). N-nonstimulated cells; T-cells treated with 50 ng/ml TPA; T/A: cells treated with 50 ng/ml TPA and 1 μg/ml A23187; T/A+CsA: cells treated with T/A and 100 ng/ml CsA. a,b,c,x and y correspond to the various tryptic phosphopeptides of c-Jun, previously described by Boyle, et al., (Cell, 64:573-584, 1991) and Smeal, et al., (Nature, 354:494-496, 1991). T1 and T2 correspond to the minor phosphorylation sites; Thr91, 93 and 95 (Hibi, et al., Genes & Dev., 7:000, 1993).

JNK [2] = test: Solid-state phosphorylation assay of JNK in mouse thymocytes; assay type: cell-based
Protocol: as §3
We examined whether elevated intracellular Ca^++ affects JNK activation in other cells. […] Cultures of FR3T3, CV-1, PC12 and mouse thymocytes were incubated for 15 minutes in the presence of TPA (50 ng/ml, T), A23817 (1 μg/ml, A) and/or CsA (100 ng/ml), as indicated. […] After washing, JNK activity was determined by solid-state phosphorylation assay as described above.

[3] = A23187 1 μg/ml plus TPA 50 ng/ml

anti-CD3: anti-CD3 monoclonal antibody OKT3
JNK activation together with suboptimal dose of TPA (JNK [1]; Jurkat): strong synergistic activation of JNK
JNK activation, combined treatment with A23187 (JNK [1]; Jurkat, anti-CD3 or anti-CD28 plus A23187): efficiently activated

cyclosporin A [CsA]
ERK2 activation by anti-CD3, effect of CsA (ERK2; CsA 100 ng/ml): nor was it inhibited
N-terminal c-Jun phosphorylation, CsA added to TPA+A23187 (c-jun; CsA 100 ng/ml): prevented the enhancement of N-terminal phosphorylation
phosphorylated c-Jun migration, CsA added to TPA+A23187 (c-jun; CsA 100 ng/ml, 15 minutes): reduced the Ca^++ effect
JNK activation, solid-state assay, CsA added to TPA+A23187 (JNK [1]; CsA 100 ng/ml): inhibited
JNK activation by suboptimal TPA+A23187, effect of CsA (JNK [1]; Jurkat): completely inhibited
JNK activation by anti-CD3+anti-CD28, effect of CsA (JNK [1]; Jurkat, CsA 100 ng/ml): partially attenuated this effect
JNK activity, CsA added to TPA+A23187 (JNK [2]; CsA 100 ng/ml): inhibited

CNc1ccc2oc(C[C@H]3O[C@@]4(CC[C@H]3C)O[C@H]([C@H](C)C(=O)c3ccc[nH]3)[C@H](C)C[C@H]4C)nc2c1C(=O)O [A23187]
N-terminal c-Jun phosphorylation, costimulation with TPA (c-jun; [3]): strongly enhanced
phosphorylated c-Jun migration, costimulation with TPA (c-jun; A23187 1 μg/ml plus TPA, 15 minutes): enhanced this effect
JNK activation, solid-state assay, costimulation with TPA (JNK [1]; [3]): strongly potentiated
JNK activation together with suboptimal dose of TPA (JNK [1]; Jurkat): strong synergistic activation of JNK
JNK activation, solid-state assay, agent alone (JNK [1]; Jurkat): had no effect
JNK activity, costimulation with TPA (JNK [2]; A23187 1 μg/ml plus TPA): enhanced

CCCCCCCCCCCCCC(=O)O[C@@H]1[C@@H](C)[C@@]2(O)[C@@H](C=C(CO)C[C@]3(O)C(=O)C(C)=C[C@@H]23)[C@H]2C(C)(C)[C@]12OC(C)=O [TPA]
ERK2 activation, suboptimal dose of TPA by itself (ERK2): partial activation of ERK2
phosphorylated c-Jun migration on SDS-PAGE, agent alone (c-jun; Jurkat transfected with c-Jun vector, TPA 50 ng/ml, 15 minutes): induced the appearance of slower migrating bands
phosphorylation of N-terminal sites Ser63 and Ser73 of c-Jun (phosphopeptide map), agent alone (c-jun; Jurkat, TPA 50 ng/ml): increased phosphorylation of the N-terminal sites
JNK activation, suboptimal dose of TPA by itself (JNK [1]; Jurkat): does not lead to JNK activation
JNK activation, solid-state assay, agent alone (JNK [1]; Jurkat): activation of JNK
JNK activity, TPA alone (JNK [2]; TPA 50 ng/ml, 15 minutes): moderate increase in JNK activity
